The data set can be described thus: activity coefficient (dimensionless); of the first substance listed, at infinite dilution; xn = mol fraction of the nth substance listed. The note with it: 101 kPa, Liquid, Chromatography, x1 = 0.

Drawing on the NIST ThermoML archive (doi:10.1016/j.jct.2012.03.005), this text covers activity coefficient for 30 compounds.

± gives the expanded uncertainty stated by the source.

For the compound `Cc1ccccc1C` [1,2-dimethylbenzene] + CCn1cc[n+](C)c1.CS(=O)(=O)[O-], the activity coefficient runs as follows: (308.15 K) 15 ± 1; (318.15 K) 14.6 ± 1; (328.15 K) 14.3 ± 1; (338.15 K) 14 ± 1; (348.15 K) 13.8 ± 0.9; (358.15 K) 13.5 ± 0.9.

Turning to `Cc1cccc(C)c1` [1,3-dimethylbenzene] + CCn1cc[n+](C)c1.CS(=O)(=O)[O-], the activity coefficient was 19.7 ± 1.3 (308.15 K); 19.1 ± 1.3 (318.15 K); 18.6 ± 1.3 (328.15 K); 18.1 ± 1.2 (338.15 K); 17.6 ± 1.2 (348.15 K); 17.1 ± 1.2 (358.15 K).

Turning to `Cc1ccc(C)cc1` [1,4-dimethylbenzene] + CCn1cc[n+](C)c1.CS(=O)(=O)[O-], the activity coefficient was 18.6 ± 1.3 (308.15 K); 18.7 ± 1.3 (318.15 K); 18.7 ± 1.3 (328.15 K); 18.8 ± 1.3 (338.15 K); 18.8 ± 1.3 (348.15 K); 18.9 ± 1.3 (358.15 K).

`C1COCCO1` [1,4-dioxane] + CCn1cc[n+](C)c1.CS(=O)(=O)[O-]: the activity coefficient was 2.6 ± 0.18 (308.15 K); 2.63 ± 0.18 (318.15 K); 2.67 ± 0.18 (328.15 K); 2.69 ± 0.18 (338.15 K); 2.72 ± 0.19 (348.15 K); 2.73 ± 0.19 (358.15 K).

Consider `C=CCCCCCCCC` [1-decene] + CCn1cc[n+](C)c1.CS(=O)(=O)[O-], for which the activity coefficient runs as follows: (308.15 K) 654 ± 45; (318.15 K) 584 ± 40; (328.15 K) 528 ± 36; (338.15 K) 479 ± 33; (348.15 K) 434 ± 30.

For the compound `C=CCCCCC` [1-heptene] + CCn1cc[n+](C)c1.CS(=O)(=O)[O-], the activity coefficient runs as follows: (308.15 K) 148 ± 10; (318.15 K) 134 ± 9; (328.15 K) 122 ± 8; (338.15 K) 112 ± 8; (348.15 K) 102 ± 7.

For `C#CCCCCC` [1-heptyne] + CCn1cc[n+](C)c1.CS(=O)(=O)[O-], the activity coefficient is, setting by setting: (308.15 K) 14.4 ± 1; (318.15 K) 14.6 ± 1; (328.15 K) 14.5 ± 1; (338.15 K) 14.6 ± 1; (348.15 K) 14.6 ± 1.

`C#CCCCC` [1-hexyne] + CCn1cc[n+](C)c1.CS(=O)(=O)[O-]: the activity coefficient worked out at 7.87 ± 0.54 (308.15 K); 8.07 ± 0.55 (318.15 K); 8.06 ± 0.55 (328.15 K); 8.29 ± 0.57 (338.15 K); 8.27 ± 0.56 (348.15 K).

Regarding `CCC[N+](=O)[O-]` [1-nitropropane] + CCn1cc[n+](C)c1.CS(=O)(=O)[O-], the activity coefficient by setting is: (308.15 K) 2.36 ± 0.16; (318.15 K) 2.37 ± 0.16; (328.15 K) 2.37 ± 0.16; (338.15 K) 2.38 ± 0.16; (348.15 K) 2.39 ± 0.16; (358.15 K) 2.39 ± 0.16.

As to `C#CCCCCCC` [1-octyne] + CCn1cc[n+](C)c1.CS(=O)(=O)[O-], the activity coefficient was found to be 26.2 ± 1.8 (308.15 K); 26.2 ± 1.8 (318.15 K); 25.6 ± 1.8 (328.15 K); 25.3 ± 1.7 (338.15 K); 25.1 ± 1.7 (348.15 K).

Consider `CCOC(C)(C)C` [2-ethoxy-2-methylpropane] + CCn1cc[n+](C)c1.CS(=O)(=O)[O-], for which the activity coefficient reads like this: (308.15 K) 66.5 ± 4.6; (318.15 K) 60.8 ± 4.2; (328.15 K) 57.1 ± 3.9; (338.15 K) 53.5 ± 3.7; (348.15 K) 50 ± 3.4.

In the case of `CCC(C)(C)OC` [2-methoxy-2-methylbutane] + CCn1cc[n+](C)c1.CS(=O)(=O)[O-], the activity coefficient is, setting by setting: (308.15 K) 40.3 ± 2.8; (318.15 K) 37.8 ± 2.6; (328.15 K) 35.8 ± 2.5; (338.15 K) 34 ± 2.3; (348.15 K) 32.6 ± 2.2.

For the compound `COC(C)(C)C` [2-methoxy-2-methylpropane] + CCn1cc[n+](C)c1.CS(=O)(=O)[O-], the activity coefficient is, setting by setting: (308.15 K) 23.6 ± 1.6; (318.15 K) 22.5 ± 1.5; (328.15 K) 21.7 ± 1.5; (338.15 K) 20.7 ± 1.4; (348.15 K) 20 ± 1.4.

Regarding `C=C(C)c1ccccc1` [(1-methylethenyl)benzene] + CCn1cc[n+](C)c1.CS(=O)(=O)[O-], the activity coefficient by setting is: (308.15 K) 10.7 ± 0.7; (318.15 K) 10.9 ± 0.7; (328.15 K) 11.1 ± 0.8; (338.15 K) 11.2 ± 0.8; (348.15 K) 11.3 ± 0.8; (358.15 K) 11.5 ± 0.8.

In the case of `CC(C)=O` [acetone] + CCn1cc[n+](C)c1.CS(=O)(=O)[O-], the activity coefficient (308.15 K) came out at 308 ± 21; the activity coefficient (318.15 K) came to 318 ± 22; the activity coefficient (328.15 K) was found to be 328 ± 23; the activity coefficient (338.15 K) amounted to 338 ± 23; the activity coefficient (348.15 K) is 348 ± 24; the activity coefficient (358.15 K) came out at 358 ± 25.

For `CC#N` [acetonitrile] + CCn1cc[n+](C)c1.CS(=O)(=O)[O-], the activity coefficient reads like this: (308.15 K) 0.799 ± 0.052; (318.15 K) 0.818 ± 0.053; (328.15 K) 0.841 ± 0.054; (338.15 K) 0.86 ± 0.06; (348.15 K) 0.877 ± 0.056; (358.15 K) 0.892 ± 0.057.

`c1ccccc1` [benzene] + CCn1cc[n+](C)c1.CS(=O)(=O)[O-]: the activity coefficient was determined as 308 ± 21 (308.15 K); 318 ± 22 (318.15 K); 328 ± 23 (328.15 K); 338 ± 23 (338.15 K); 348 ± 24 (348.15 K); 358 ± 25 (358.15 K).

Turning to `C1CCCCCC1` [cycloheptane] + CCn1cc[n+](C)c1.CS(=O)(=O)[O-], the activity coefficient (308.15 K) was 113 ± 8; the activity coefficient (318.15 K) was 99.8 ± 6.9; the activity coefficient (328.15 K) is 90.7 ± 6.2; the activity coefficient (338.15 K) came to 79.9 ± 5.5; the activity coefficient (348.15 K) worked out at 72.6 ± 5.

With `C1CCCCC1` [cyclohexane] + CCn1cc[n+](C)c1.CS(=O)(=O)[O-], the activity coefficient is, setting by setting: (308.15 K) 83.6 ± 5.7; (318.15 K) 73.9 ± 5.1; (328.15 K) 67.6 ± 4.6; (338.15 K) 59.6 ± 4.1; (348.15 K) 53.7 ± 3.7.

As for `C1CCCCCCC1` [cyclooctane] + CCn1cc[n+](C)c1.CS(=O)(=O)[O-], the activity coefficient by setting is: (308.15 K) 163 ± 11; (318.15 K) 143 ± 10; (328.15 K) 128 ± 9; (338.15 K) 114 ± 8; (348.15 K) 101 ± 7.

For the compound `C1CCCC1` [cyclopentane] + CCn1cc[n+](C)c1.CS(=O)(=O)[O-], the activity coefficient runs as follows: (308.15 K) 46.2 ± 3.2; (318.15 K) 42.2 ± 2.9; (328.15 K) 39.5 ± 2.7; (338.15 K) 36.1 ± 2.5; (348.15 K) 33 ± 2.3.

For the compound `CCCCCCCCCC` [decane] + CCn1cc[n+](C)c1.CS(=O)(=O)[O-], the activity coefficient was 1320 ± 91 (308.15 K); 1180 ± 82 (318.15 K); 1040 ± 72 (328.15 K); 925 ± 64 (338.15 K); 835 ± 58 (348.15 K); 762 ± 53 (358.15 K).

As for `CCOCC` [diethyl ether] + CCn1cc[n+](C)c1.CS(=O)(=O)[O-], the activity coefficient runs as follows: (308.15 K) 19.2 ± 1.3; (318.15 K) 18.2 ± 1.2; (328.15 K) 17.5 ± 1.2; (338.15 K) 16.8 ± 1.1; (348.15 K) 16.1 ± 1.1.

As to `CC(C)OC(C)C` [diisopropyl ether] + CCn1cc[n+](C)c1.CS(=O)(=O)[O-], the activity coefficient runs as follows: (308.15 K) 79.6 ± 5.5; (318.15 K) 74.3 ± 5.1; (328.15 K) 68.7 ± 4.7; (338.15 K) 64.8 ± 4.4; (348.15 K) 60.6 ± 4.2.

With `CCCOCCC` [dipropyl ether] + CCn1cc[n+](C)c1.CS(=O)(=O)[O-], the activity coefficient reads like this: (308.15 K) 80.3 ± 5.5; (318.15 K) 72.7 ± 5; (328.15 K) 67.5 ± 4.6; (338.15 K) 62.8 ± 4.3; (348.15 K) 58.1 ± 4.

With `CCO` [ethanol] + CCn1cc[n+](C)c1.CS(=O)(=O)[O-], the activity coefficient came to 0.489 ± 0.037 (308.15 K); 0.483 ± 0.037 (318.15 K); 0.479 ± 0.037 (328.15 K); 0.474 ± 0.037 (338.15 K); 0.47 ± 0.04 (348.15 K); 0.467 ± 0.036 (358.15 K).

For the compound `CCc1ccccc1` [ethylbenzene] + CCn1cc[n+](C)c1.CS(=O)(=O)[O-], the activity coefficient (308.15 K) turned out to be 18.1 ± 1.2; the activity coefficient (318.15 K) turned out to be 17.5 ± 1.2; the activity coefficient (328.15 K) came out at 17.1 ± 1.2; the activity coefficient (338.15 K) is 16.5 ± 1.1; the activity coefficient (348.15 K) stood at 16.1 ± 1.1; the activity coefficient (358.15 K) was 15.6 ± 1.1.

For the compound `CCCCCCC` [heptane] + CCn1cc[n+](C)c1.CS(=O)(=O)[O-], the activity coefficient (308.15 K) was 378 ± 26, the activity coefficient (318.15 K) was 328 ± 23, the activity coefficient (328.15 K) was 273 ± 19 and the activity coefficient (338.15 K) is 244 ± 17.

For the compound `C=CCCCC` [hex-1-ene] + CCn1cc[n+](C)c1.CS(=O)(=O)[O-], the activity coefficient came to 85.1 ± 5.8 (308.15 K), 77.1 ± 5.3 (318.15 K), 70.4 ± 4.8 (328.15 K) and 63.9 ± 4.4 (338.15 K).

For `CO` [methanol] + CCn1cc[n+](C)c1.CS(=O)(=O)[O-], the activity coefficient was found to be 0.223 ± 0.029 (308.15 K); 0.225 ± 0.029 (318.15 K); 0.228 ± 0.029 (328.15 K); 0.229 ± 0.029 (338.15 K); 0.232 ± 0.029 (348.15 K); 0.234 ± 0.029 (358.15 K).
